For 40 compounds, EC50 and Emax results are on record in patent US20230373974A1, “MODULATORS OF CYSTIC FIBROSIS TRANSMEMBRANE CONDUCTANCE REGULATOR” (VERTEX PHARMACEUTICALS INCORPORATED, priority 2020, published 2023).

A value given as a limit tells only on which side of the number the result lay.

For this assay, the target named is T1, F508del in NIH 3T3 cells (Homo sapiens, UniProt P13569, DEL508-508).
T1 construct: expressed in transfected cells
Description: 3T3 assay: membrane potential optical assay for F508del correction. The class given is cell-based, mouse. The settings on record: F508del NIH 3T3 cells; for EC50: incubated with compound 18-24 hours at 37° C., forskolin activation; for Emax: NIH3T3, efficacy compared to lumacaftor in combination with acutely added 300 nM Ivacaftor, read-out: 3T3 Max Activity (%). An excerpt:
Membrane Potential Optical Methods for Assaying F508del Modulation Properties of Compounds The assay utilizes fluorescent voltage sensing dyes to measure changes in membrane potential using a fluorescent plate reader (e.g., FLIPR III, Molecular Devices, Inc.) as a readout for increase in functional F508del in NIH 3T3 cells. The driving force for the response is the creation of a chloride ion gradient in conjunction with channel activation by a single liquid addition step after the cells have previously been treated with compounds and subsequently loaded with a voltage sensing dye. 2. Identification of Corrector Compounds To identify correctors of F508del, a single-addition HTS assay format was developed. This HTS assay utilizes fluorescent voltage sensing dyes to measure changes in membrane potential on the FLIPR III as a measurement for increase in gating (conductance) of F508del in F508del NIH 3T3 cells. The F508del NIH 3T3 cell cultures were incubated with the corrector compounds at a range of concentrations for 18-24 hours at 37° C., and subsequently loaded with a redistribution dye. The driving force for the response is a Cl^− ion gradient in conjunction with channel activation with forskolin in a single liquid addition step using a fluorescent plate reader such as FLIPR III. […] Solutions […] Chloride-free bath solution: Chloride salts in Bath Solution #1 (above) are substituted with gluconate salts. 4. Cell Culture NIH3T3 mouse fibroblasts stably expressing F508del are used for optical measurements of membrane potential. The cells are maintained at 37° C. in 5% CO2 and 90% humidity in Dulbecco's modified Eagle's medium supplemented with 2 mM glutamine, 10% fetal bovine serum, 1×NEAA, b-ME, 1×pen/strep, and 25 mM HEPES in 175 cm^2 culture flasks. For all optical assays, the cells were seeded at ˜20,000/well in 384-well Matrigel-coated plates. For the correction assays, the cells are cultured at 37° C. with and without compounds for 16-24 hours.

T1 sequence (P13569 with tags, fused parts or gaps DEL508-508): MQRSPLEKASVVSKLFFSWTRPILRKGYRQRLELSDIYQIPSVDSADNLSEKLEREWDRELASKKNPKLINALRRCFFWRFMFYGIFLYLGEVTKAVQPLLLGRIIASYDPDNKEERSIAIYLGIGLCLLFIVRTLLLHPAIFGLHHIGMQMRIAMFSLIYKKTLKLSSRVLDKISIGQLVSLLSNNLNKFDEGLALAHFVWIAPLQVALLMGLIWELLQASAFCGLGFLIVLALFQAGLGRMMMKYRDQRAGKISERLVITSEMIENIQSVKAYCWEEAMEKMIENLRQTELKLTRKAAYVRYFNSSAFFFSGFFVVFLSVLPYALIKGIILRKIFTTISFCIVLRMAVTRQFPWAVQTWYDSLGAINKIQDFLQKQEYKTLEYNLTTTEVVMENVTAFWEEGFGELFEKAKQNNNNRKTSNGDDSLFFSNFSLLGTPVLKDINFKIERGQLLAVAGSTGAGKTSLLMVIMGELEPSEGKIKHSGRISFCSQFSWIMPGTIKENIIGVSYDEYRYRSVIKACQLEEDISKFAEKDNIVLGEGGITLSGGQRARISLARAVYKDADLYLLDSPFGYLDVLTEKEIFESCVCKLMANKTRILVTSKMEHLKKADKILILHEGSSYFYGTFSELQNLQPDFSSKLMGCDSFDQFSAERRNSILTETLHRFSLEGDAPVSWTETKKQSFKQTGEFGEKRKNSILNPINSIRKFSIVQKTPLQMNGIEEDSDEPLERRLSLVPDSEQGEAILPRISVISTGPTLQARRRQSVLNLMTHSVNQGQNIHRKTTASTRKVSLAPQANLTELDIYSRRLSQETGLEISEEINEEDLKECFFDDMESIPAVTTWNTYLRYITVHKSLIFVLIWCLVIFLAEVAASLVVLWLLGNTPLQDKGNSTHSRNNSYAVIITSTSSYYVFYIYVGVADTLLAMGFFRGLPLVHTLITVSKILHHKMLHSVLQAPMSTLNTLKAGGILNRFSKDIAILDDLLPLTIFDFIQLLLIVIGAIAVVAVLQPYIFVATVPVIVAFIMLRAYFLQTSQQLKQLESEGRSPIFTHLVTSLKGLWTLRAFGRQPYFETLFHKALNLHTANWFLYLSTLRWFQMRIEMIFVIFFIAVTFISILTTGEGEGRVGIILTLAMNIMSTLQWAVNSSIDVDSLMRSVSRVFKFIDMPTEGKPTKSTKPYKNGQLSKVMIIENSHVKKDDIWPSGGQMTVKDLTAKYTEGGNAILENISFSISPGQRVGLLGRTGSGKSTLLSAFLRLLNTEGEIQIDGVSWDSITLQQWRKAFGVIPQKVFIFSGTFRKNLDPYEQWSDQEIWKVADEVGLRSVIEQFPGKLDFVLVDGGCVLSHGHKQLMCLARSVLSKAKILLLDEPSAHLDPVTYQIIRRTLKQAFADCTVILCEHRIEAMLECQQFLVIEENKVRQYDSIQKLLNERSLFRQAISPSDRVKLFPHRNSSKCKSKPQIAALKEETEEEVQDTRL

One may read the EC50 as the concentration that produces a half-maximal response. For `Cc1ccccc1Oc1nc(NS(=O)(=O)c2cnn(C)c2)nc2c1C(C)(C)CCC2` [Compound 1, N-[5,5-dimethyl-4-(2-methylphenoxy)-7,8-dihydro-6H-quinazolin-2-yl]-1-methyl-pyrazole-4-sulfonamide], the EC50 lay in the range of 1 to 3 µM and the Emax was greater than 60%.
For `Cc1ccccc1Oc1nc(NS(=O)(=O)c2cnn(C)c2)nc2c1CCC(C)(C)C2` [Compound 2, N-[7,7-Dimethyl-4-(2-methylphenoxy)-6,8-dihydro-5H-quinazolin-2-yl]-1-methyl-pyrazole-4-sulfonamide], in that order: 1 to 3 µM and greater than 60%.
For `Cc1ccccc1Oc1nc(NS(=O)(=O)c2cnn(C)c2)nc2c1CC(C)(C)CC2` [Compound 3, N-[6,6-Dimethyl-4-(2-methylphenoxy)-7,8-dihydro-5H-quinazolin-2-yl]-1-methyl-pyrazole-4-sulfonamide], in that order: 1 to 3 µM and greater than 60%.
As to `O=S(=O)(Nc1nc2c(c(Oc3ccccc3)n1)CCCC2)c1ccccc1` [Compound 4, N-(4-phenoxy-5,6,7,8-tetrahydroquinazolin-2-yl)benzenesulfonamide], the EC50 was in the range of 3 to 30 µM and the Emax was greater than 60%.
Consider `Cc1ccccc1Oc1nc(NS(=O)(=O)c2cnn(C)c2)nc2c1CCCC2(C)C` [Compound 5, N-[8,8-Dimethyl-4-(2-methylphenoxy)-6,7-dihydro-5H-quinazolin-2-yl]-1-methyl-pyrazole-4-sulfonamide], for which the EC50 is 3 to 30 µM and the Emax was in the range of 30 to 60%.
With `O=S(=O)(Nc1nc2c(c(Oc3ccccc3)n1)CCC2)c1ccccc1` [Compound 6, N-(4-phenoxy-6,7-dihydro-5H-cyclopenta[d]pyrimidin-2-yl)benzenesulfonamide], the concentration for a half-maximal effect (EC50) was 3 to 30 µM and the Emax was greater than 60%.
For `Cc1ccccc1Oc1nc(NS(=O)(=O)c2cnn(C)c2)nc2c1CCc1ccccc1-2` [Compound 7], in that order: less than 1 µM and greater than 60%.
As to `O=S(=O)(NC1=Nc2ccccc2C(c2ccccc2)S1)c1ccccc1` (stereo not shown) [Compound 9, N-(4-phenyl-4H-3,1-benzothiazin-2-yl)benzenesulfonamide], the EC50 lay within 3 to 30 µM.
For `CC(C)(C)c1ccccc1Oc1nc2ccccc2nc1NS(=O)(=O)c1ccccc1` [Compound 10, N-[3-(2-tert-butylphenoxy)quinoxalin-2-yl]benzenesulfonamide], the EC50 was less than 1 µM.
As for `Cc1cccc(C)c1Oc1nc2ccccc2nc1NS(=O)(=O)c1ccccc1` [Compound 11, N-[3-(2,6-Dimethylphenoxy)quinoxalin-2-yl]benzenesulfonamide], the EC50 lay in the range of 3 to 30 µM.
On to `O=S(=O)(Nc1nc2ccccc2nc1N1CCCCC1)c1ccccc1` [Compound 12, N-[3-(1-piperidyl)quinoxalin-2-yl]benzenesulfonamide], for which the EC50 was 3 to 30 µM and the Emax lay within 30 to 60%.
Regarding `Cc1cc(C)c(Oc2nc3ccccc3nc2NS(=O)(=O)c2ccccc2)c(C)c1` [Compound 13], the EC50 fell in the range of 1 to 3 µM and the Emax was in the range of 30 to 60%.
Regarding `Cc1ccc(Oc2nc3ccccc3nc2NS(=O)(=O)c2ccccc2)c(C)c1` [Compound 14], the EC50 lay within 1 to 3 µM and the Emax lay within 30 to 60%.
For `Cc1ccccc1Oc1nc2ccccc2nc1NS(=O)(=O)c1ccccc1` [Compound 15], in that order: 3 to 30 µM and 30 to 60%.
Consider `O=S(=O)(Nc1nc(Oc2ccccc2)nc2ccccc12)c1ccccc1` [Compound 16], for which the Emax is less than 30%.
On to `Cc1cc(C)cc(-c2nc(NS(=O)(=O)c3ccccc3)c3ccc(C(C)(C)C)nc3n2)c1` [Compound 17], for which the Emax is less than 30%.
Turning to `Cc1ccc(-c2nc(NS(=O)(=O)c3ccccc3)c3ccc(C(C)(C)C)nc3n2)c(C)c1` [Compound 18], the Emax is less than 30%.
`Cc1cc(C)c(Oc2nc(NS(=O)(=O)c3ccccc3)c3ccc(C(C)(C)C)nc3n2)c(C)c1` [Compound 19]: the Emax is less than 30%.
Regarding `O=S(=O)(Nc1nc2c(s1)-c1ccccc1CC2)c1ccccc1` [Compound 20, N-(4,5-Dihydrobenzo[g][1,3]benzothiazol-2-yl) benzenesulfonamide], the 50% effective concentration (EC50) was in the range of 3 to 30 µM.
On to `CC(C)(O)C1CCc2nc(NS(=O)(=O)c3ccccc3)sc2C1` (stereo not shown) [Compound 21], for which the Emax is less than 30%.
In the case of `CC(C)N1CCc2nc(NS(=O)(=O)c3ccccc3)sc2C1` [Compound 22], the Emax is less than 30%.
Same read-out and setting: with `CC1CCc2nc(NS(=O)(=O)c3ccccc3)sc2C1` (stereo not shown) [Compound 24] the figure was less than 30%.
For the compound `CC(C)(C)C1CCc2nc(NS(=O)(=O)c3ccccc3)sc2C1` (stereo not shown) [Compound 25], the EC50 lay in the range of 1 to 3 µM and the Emax lay in the range of 30 to 60%.
For `O=S(=O)(Nc1nc2c(s1)CCc1ccccc1-2)c1ccccc1` [Compound 26], in that order: 1 to 3 µM and 30 to 60%.
As for `O=S(=O)(Nc1nc2c(s1)Cc1ccccc1-2)c1ccccc1` [Compound 27], the half-maximal effective concentration (EC50) lay within 3 to 30 µM and the Emax is 30 to 60%.
In the case of `Cc1cc(C)cc(-c2nc(NS(=O)(=O)c3ccccc3)nc3ccccc23)c1` [Compound 28, N-[4-(3,5-Dimethylphenyl)quinazolin-2-yl]benzenesulfonamide], the EC50 lay within 1 to 3 µM.
Same read-out and setting: with `O=S(=O)(Nc1nc(-c2ccccc2)c2ccn(-c3ccccc3)c2n1)c1ccccc1` [Compound 29, N-(4,7-Diphenylpyrrolo[2,3-d]pyrimidin-2-yl)benzenesulfonamide] the figure was less than 1 µM; with `Cc1cc(C)cc(-c2nc(NS(=O)(=O)c3ccccc3)nc3nc(C(C)(C)C)ccc23)c1` [Compound 30, N-[7-tert-butyl-4-(3,5-dimethylphenyl)pyrido[2,3-d]pyrimidin-2-yl]benzenesulfonamide], less than 1 µM; with `O=S(=O)(Nc1nc(Oc2ccccc2)c2ccccc2n1)c1ccccc1` [Compound 31, N-(4-phenoxyquinazolin-2-yl)benzenesulfonamide], 3 to 30 µM.
On the same count and under the same terms, to `Nc1cccc(S(=O)(=O)Nc2nc(-c3ccccc3)c3ccn(-c4ccccc4)c3n2)c1` [Compound 32, 3-Amino-N-(4,7-diphenylpyrrolo[2,3-d]pyrimidin-2-yl)benzenesulfonamide] belongs less than 1 µM.
As to `Cc1cc(C)c(-n2nc(NS(=O)(=O)c3cccc(N(C)C)c3)c3ccc(C(C)(C)C)nc32)c(C)c1` [Compound 34, N-[6-tert-butyl-1-(2,4,6-trimethylphenyl)pyrazolo[3,4-b]pyridin-3-yl]-3-(dimethylamino)benzenesulfonamide], the EC50 was less than 1 µM and the Emax is greater than 60%.
On to `Cc1cc(C)c(-n2nc(NS(=O)(=O)c3cn[nH]c3)c3ccc(C(C)(C)C)nc32)c(C)c1` [Compound 35, N-[6-tert-butyl-1-(2,4,6-trimethylphenyl)pyrazolo[3,4-b]pyridin-3-yl]-1H-pyrazole-4-sulfonamide], for which the EC50 was 1 to 3 µM and the Emax is greater than 60%.
In the case of `Cc1cc(C)c(-n2nc(NS(=O)(=O)c3ccc(N)cc3)c3ccc(C(C)(C)C)nc32)c(C)c1` [Compound 36, 4-Amino-N-[6-tert-butyl-1-(2,4,6-trimethylphenyl)pyrazolo[3,4-b]pyridin-3-yl]benzenesulfonamide], the concentration giving a half-maximal response (EC50) was in the range of 1 to 3 µM.
Take `Cc1cc(C)cc(-n2nc(NS(=O)(=O)c3ccccc3)c3ccc(C(C)(C)C)nc32)c1` [Compound 37, N-[6-tert-Butyl-1-(3,5-dimethylphenyl)pyrazolo[3,4-b]pyridin-3-yl]benzenesulfonamide]: the EC50 is less than 1 µM and the Emax is 30 to 60%.
For `CC(C)(C)c1ccc2c(NS(=O)(=O)c3ccccc3)nn(-c3cccc(Cl)c3)c2n1` [Compound 38, N-[6-tert-butyl-1-(3-chlorophenyl)pyrazolo[3,4-b]pyridin-3-yl]benzenesulfonamide], in that order: less than 1 µM and 30 to 60%.
In the case of `CC(C)n1nc(NS(=O)(=O)c2ccccc2)c2ccc(C(C)(C)C)nc21` [Compound 39, N-(6-tert-butyl-1-isopropyl-pyrazolo[3,4-b]pyridin-3-yl)benzenesulfonamide], the concentration for a half-maximal effect (EC50) lay within 1 to 3 µM.
Take `CC(C)(C)c1ccc2c(NS(=O)(=O)c3ccccc3)nn(-c3ccccc3)c2n1` [Compound 40]: the EC50 is less than 1 µM and the Emax was 30 to 60%.
Take `CC(C)CCn1nc(NS(=O)(=O)c2ccccc2)c2ccc(C(C)(C)C)nc21` [Compound 41]: the Emax was less than 30%.
Regarding `Cc1cc(C)c(-n2nc(NS(=O)(=O)c3cccc(N)n3)c3ccc(C(C)(C)C)nc32)c(C)c1` [Compound 42], the EC50 lay within 1 to 3 µM and the Emax fell in the range of 30 to 60%.
Consider `Cc1ccc(-n2nc(NS(=O)(=O)c3ccccc3)c3ccc(C(C)(C)C)nc32)c(C)c1` [Compound 43], for which the EC50 was less than 1 µM and the Emax lay in the range of 30 to 60%.
